This note sets out measurements from ChEMBL document CHEMBL1909046, “DrugMatrix in vitro pharmacology data”.

Chain of Cannabinoid receptor 1 (P21554 whole entry): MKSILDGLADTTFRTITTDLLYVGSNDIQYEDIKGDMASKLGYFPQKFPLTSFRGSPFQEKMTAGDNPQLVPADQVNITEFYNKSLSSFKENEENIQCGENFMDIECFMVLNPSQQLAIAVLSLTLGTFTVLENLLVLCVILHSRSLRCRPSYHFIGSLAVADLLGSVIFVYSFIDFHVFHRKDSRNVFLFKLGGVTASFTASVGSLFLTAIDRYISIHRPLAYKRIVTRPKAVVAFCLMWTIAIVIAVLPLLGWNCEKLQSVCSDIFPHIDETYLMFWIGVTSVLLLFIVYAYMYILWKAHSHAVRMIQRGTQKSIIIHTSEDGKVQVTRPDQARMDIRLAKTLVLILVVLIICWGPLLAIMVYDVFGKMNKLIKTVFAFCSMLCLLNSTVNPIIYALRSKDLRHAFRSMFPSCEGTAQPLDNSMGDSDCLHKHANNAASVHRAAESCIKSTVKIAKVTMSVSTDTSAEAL

Tested on in the first data set: not listed separately
Nature of the data set: DRUGMATRIX: Calcium Channel Type L, Dihydropyridine radioligand binding (ligand: [3H] Nitrendipine). The format is cell membranes, Rattus norvegicus, Wistar, Cerebral cortex, Membrane. The conditions noted are these: Not Active = under 50% inhibition at 10 µM.
On to `CCC1(c2ccccc2)C(=O)NCNC1=O` [PRIMIDONE], for which the IC50 result is “Not Active” and the Ki result is given as “Not Active”.
`CC=CC(=O)N(CC)c1ccccc1C`: the IC50 result is “Not Active” and the Ki result is recorded as “Not Active”.
In the case of `O=C1NC(=O)C(c2ccccc2)(c2ccccc2)N1` [PHENYTOIN], the IC50 result is “Not Active” and the Ki result is “Not Active”.

The target in the next data set is Kappa-type opioid receptor (Homo sapiens, UniProt P41145). Nature of the data set: DRUGMATRIX: Opiate kappa (OP2, KOP) radioligand binding (ligand: [3H] Diprenorphine). The format is cell membranes, HEK293, Membrane. The note with it: hek293; Not Active = under 50% inhibition at 10 µM.
Chain of Kappa-type opioid receptor (P41145 whole entry): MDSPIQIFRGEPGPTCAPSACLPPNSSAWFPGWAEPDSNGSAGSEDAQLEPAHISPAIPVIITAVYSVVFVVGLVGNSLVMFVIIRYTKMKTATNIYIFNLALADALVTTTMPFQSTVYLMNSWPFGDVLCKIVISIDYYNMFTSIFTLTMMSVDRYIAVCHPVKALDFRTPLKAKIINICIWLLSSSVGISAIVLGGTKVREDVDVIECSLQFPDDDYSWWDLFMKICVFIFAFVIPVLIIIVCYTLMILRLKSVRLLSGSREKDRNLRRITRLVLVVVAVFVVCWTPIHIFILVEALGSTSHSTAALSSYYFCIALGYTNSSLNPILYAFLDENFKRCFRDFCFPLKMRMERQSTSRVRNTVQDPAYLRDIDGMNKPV
Regarding `CCC1(c2ccccc2)C(=O)NCNC1=O` [PRIMIDONE], the IC50 entry was “Not Active”.
Regarding `CC=CC(=O)N(CC)c1ccccc1C`, the IC50 result was “Not Active”.
With `O=C1NC(=O)C(c2ccccc2)(c2ccccc2)N1` [PHENYTOIN], the IC50 entry is “Not Active”.

A further data set has as its target Cannabinoid receptor 1 (Homo sapiens, UniProt P21554). The format is cell membranes, Membrane. The conditions noted are these: chem-1. Note: in other assays of this panel Not Active means under 50% inhibition at 10 µM.
As to `CCC1(c2ccccc2)C(=O)NCNC1=O` [PRIMIDONE], the IC50 result is listed as “Not Active”.
As to `CC=CC(=O)N(CC)c1ccccc1C`, the IC50 entry is “Not Active”.
`O=C1NC(=O)C(c2ccccc2)(c2ccccc2)N1` [PHENYTOIN]: the IC50 result was “Not Active”.

Tested on in the next data set: not listed separately
Nature of the data set: DRUGMATRIX: GABAA, Flunitrazepam, Central radioligand binding (ligand: [3H] Flunitrazepam). It counts as cell membranes, Rattus norvegicus, Wistar, Brain, Membrane. The note with it: Not Active = under 50% inhibition at 10 µM.
In the case of `CCC1(c2ccccc2)C(=O)NCNC1=O` [PRIMIDONE], the IC50 entry was “Not Active” and the Ki entry was “Not Active”.
Consider `CC=CC(=O)N(CC)c1ccccc1C`, for which the IC50 entry is recorded as “Not Active” and the Ki result was “Not Active”.
`O=C1NC(=O)C(c2ccccc2)(c2ccccc2)N1` [PHENYTOIN]: the IC50 entry was “Not Active” and the Ki entry is given as “Not Active”.

A further data set concerns the target Protein phosphatase 3 catalytic subunit alpha (Homo sapiens, UniProt Q08209). Also noted: species or system Escherichia coli.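 Note: inhibition of calcineurin (PP2B) enzyme activity, measured with DiFMUP as the substrate; in other assays of this panel Not Active means under 50% inhibition at 10 µM.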
Conditions: not given
As to `CCC1(c2ccccc2)C(=O)NCNC1=O` [PRIMIDONE], the IC50 result is listed as “Not Active”.
Same read-out and setting: next, `CC=CC(=O)N(CC)c1ccccc1C`: “Not Active”; `O=C1NC(=O)C(c2ccccc2)(c2ccccc2)N1` [PHENYTOIN]: “Not Active”.

The next data set deals with Beta-2 adrenergic receptor (Homo sapiens, UniProt P07550). Nature of the data set: DRUGMATRIX: Adrenergic beta2 radioligand binding (ligand: [3H] CGP-12177). It counts as cell membranes, Membrane. The note with it: cho; Not Active = under 50% inhibition at 10 µM.
Chain of Beta-2 adrenergic receptor (P07550 whole entry): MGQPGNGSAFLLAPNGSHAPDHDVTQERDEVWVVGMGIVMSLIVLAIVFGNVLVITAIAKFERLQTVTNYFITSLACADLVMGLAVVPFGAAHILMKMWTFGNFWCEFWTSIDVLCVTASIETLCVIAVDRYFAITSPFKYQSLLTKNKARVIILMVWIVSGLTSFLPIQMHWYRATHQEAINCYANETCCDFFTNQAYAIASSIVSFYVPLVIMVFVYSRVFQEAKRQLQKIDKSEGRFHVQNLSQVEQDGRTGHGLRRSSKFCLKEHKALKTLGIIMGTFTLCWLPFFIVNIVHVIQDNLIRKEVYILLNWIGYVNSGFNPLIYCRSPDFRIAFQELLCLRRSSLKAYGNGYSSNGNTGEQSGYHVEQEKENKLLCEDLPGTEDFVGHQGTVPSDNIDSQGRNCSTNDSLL
For the compound `CCC1(c2ccccc2)C(=O)NCNC1=O` [PRIMIDONE], the IC50 entry is recorded as “Not Active”.
Same read-out and setting: under `CC=CC(=O)N(CC)c1ccccc1C` stands “Not Active”.
In the case of `O=C1NC(=O)C(c2ccccc2)(c2ccccc2)N1` [PHENYTOIN], the IC50 entry was “Not Active”.

A further data set deals with T1, Alpha-2C adrenergic receptor (Homo sapiens, UniProt P18825).
T1 sequence (P18825 whole entry): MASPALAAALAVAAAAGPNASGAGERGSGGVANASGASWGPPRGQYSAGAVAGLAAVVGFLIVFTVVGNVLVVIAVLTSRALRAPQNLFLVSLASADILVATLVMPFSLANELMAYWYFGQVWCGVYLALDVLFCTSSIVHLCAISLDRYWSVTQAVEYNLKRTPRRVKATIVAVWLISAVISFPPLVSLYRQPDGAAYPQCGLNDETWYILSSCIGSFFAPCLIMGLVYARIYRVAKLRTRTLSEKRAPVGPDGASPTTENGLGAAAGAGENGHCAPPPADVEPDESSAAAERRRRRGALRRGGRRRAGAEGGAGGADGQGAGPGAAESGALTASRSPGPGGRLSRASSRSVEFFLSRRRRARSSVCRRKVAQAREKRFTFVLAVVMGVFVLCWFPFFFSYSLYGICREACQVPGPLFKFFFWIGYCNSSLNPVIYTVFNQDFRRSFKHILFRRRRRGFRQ
Nature of the data set: DRUGMATRIX: Adrenergic Alpha-2C radioligand binding (ligand: [3H] MK-912). The format is cell membranes, Sf9, Membrane. The note with it: sf9.
As for `CCC1(c2ccccc2)C(=O)NCNC1=O` [PRIMIDONE], the IC50 result is reported as “Not Active”.
On the same count and under the same terms, under `CC=CC(=O)N(CC)c1ccccc1C` stands “Not Active”; under `O=C1NC(=O)C(c2ccccc2)(c2ccccc2)N1` [PHENYTOIN], “Not Active”.

For another data set, the target named is Sodium-dependent noradrenaline transporter (Homo sapiens, UniProt P23975). Nature of the data set: DRUGMATRIX: Norepinephrine Transporter radioligand binding (ligand: [125I] RTI-55). The format is cell membranes, MDCK, Membrane. The note with it: mdck; Not Active = under 50% inhibition at 10 µM.
Chain of Sodium-dependent noradrenaline transporter (P23975 whole entry): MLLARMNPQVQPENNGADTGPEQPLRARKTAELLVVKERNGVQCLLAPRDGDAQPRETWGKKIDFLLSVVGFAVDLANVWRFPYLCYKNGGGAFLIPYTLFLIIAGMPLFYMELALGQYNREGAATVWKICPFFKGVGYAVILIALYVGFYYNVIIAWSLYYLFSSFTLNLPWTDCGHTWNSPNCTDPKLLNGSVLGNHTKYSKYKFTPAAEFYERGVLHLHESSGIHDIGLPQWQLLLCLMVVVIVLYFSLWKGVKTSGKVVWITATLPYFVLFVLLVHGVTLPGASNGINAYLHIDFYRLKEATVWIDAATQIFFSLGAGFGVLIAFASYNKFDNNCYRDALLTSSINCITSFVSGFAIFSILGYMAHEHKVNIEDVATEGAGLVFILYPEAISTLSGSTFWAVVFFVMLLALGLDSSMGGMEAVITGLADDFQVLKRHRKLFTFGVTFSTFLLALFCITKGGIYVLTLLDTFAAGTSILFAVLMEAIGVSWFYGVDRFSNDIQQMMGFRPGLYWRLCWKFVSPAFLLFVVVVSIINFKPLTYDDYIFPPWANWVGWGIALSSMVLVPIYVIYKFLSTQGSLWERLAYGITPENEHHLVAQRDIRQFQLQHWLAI
On to `CCC1(c2ccccc2)C(=O)NCNC1=O` [PRIMIDONE], for which the IC50 result is “Not Active”.
Still for that read-out and setting: next, `CC=CC(=O)N(CC)c1ccccc1C`: “Not Active”; `O=C1NC(=O)C(c2ccccc2)(c2ccccc2)N1` [PHENYTOIN]: “Not Active”.

Another data set deals with T2, Endothelin-1 receptor (Homo sapiens, UniProt P25101).
T2 sequence (P25101 whole entry): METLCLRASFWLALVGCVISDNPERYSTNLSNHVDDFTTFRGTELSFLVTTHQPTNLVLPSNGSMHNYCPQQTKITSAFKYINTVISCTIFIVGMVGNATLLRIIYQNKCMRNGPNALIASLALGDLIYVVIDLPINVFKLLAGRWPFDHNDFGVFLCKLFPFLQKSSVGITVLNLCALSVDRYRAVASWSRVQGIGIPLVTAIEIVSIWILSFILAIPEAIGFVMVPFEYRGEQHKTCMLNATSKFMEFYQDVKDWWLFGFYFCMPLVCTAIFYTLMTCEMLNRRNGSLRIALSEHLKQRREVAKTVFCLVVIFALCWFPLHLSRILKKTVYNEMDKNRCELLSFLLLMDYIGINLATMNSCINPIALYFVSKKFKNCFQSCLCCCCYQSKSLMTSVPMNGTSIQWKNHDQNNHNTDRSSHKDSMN
The format is cell membranes, Membrane. The note with it: cho-k1.
Consider `CCC1(c2ccccc2)C(=O)NCNC1=O` [PRIMIDONE], for which the IC50 entry is “Not Active”.
On to `CC=CC(=O)N(CC)c1ccccc1C`, for which the IC50 result is reported as “Not Active”.
Regarding `O=C1NC(=O)C(c2ccccc2)(c2ccccc2)N1` [PHENYTOIN], the IC50 result is “Not Active”.

The target of another data set is Cytochrome P450 2C9 (Homo sapiens, UniProt P11712). The conditions noted are these: bti-tn-5b1-4. Note: in other assays of this panel Not Active means under 50% inhibition at 10 µM.
Chain of Cytochrome P450 2C9 (P11712 whole entry): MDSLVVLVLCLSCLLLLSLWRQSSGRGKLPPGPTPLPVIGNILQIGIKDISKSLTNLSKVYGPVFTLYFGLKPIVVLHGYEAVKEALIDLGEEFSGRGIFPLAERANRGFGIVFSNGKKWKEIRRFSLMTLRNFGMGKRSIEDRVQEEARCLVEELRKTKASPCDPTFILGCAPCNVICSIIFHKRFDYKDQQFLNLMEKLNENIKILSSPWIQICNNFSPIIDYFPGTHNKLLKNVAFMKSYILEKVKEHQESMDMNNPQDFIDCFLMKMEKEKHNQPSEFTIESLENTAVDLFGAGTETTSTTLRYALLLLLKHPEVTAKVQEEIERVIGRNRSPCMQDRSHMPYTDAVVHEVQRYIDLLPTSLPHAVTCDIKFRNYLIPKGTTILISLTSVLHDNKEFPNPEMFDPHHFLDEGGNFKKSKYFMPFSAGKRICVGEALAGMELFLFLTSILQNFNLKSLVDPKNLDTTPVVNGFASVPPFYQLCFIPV
Turning to `CCC1(c2ccccc2)C(=O)NCNC1=O` [PRIMIDONE], the IC50 result is listed as “Not Active” and the Ki result is “Not Active”.
As for `CC=CC(=O)N(CC)c1ccccc1C`, the IC50 result is listed as “Not Active” and the Ki result is listed as “Not Active”.
Turning to `O=C1NC(=O)C(c2ccccc2)(c2ccccc2)N1` [PHENYTOIN], the IC50 result is “Not Active” and the Ki result is “Not Active”.

Tested on in another data set: not listed separately
Nature of the data set: DRUGMATRIX: Phosphodiesterase PDE3 enzyme inhibition (substrate: [3H]cAMP + cAMP). The format is tissue-based, Homo sapiens. The conditions noted are these: platelet; Not Active = under 50% inhibition at 10 µM.
For the compound `CCC1(c2ccccc2)C(=O)NCNC1=O` [PRIMIDONE], the IC50 result is “Not Active” and the Ki entry is recorded as “Not Active”.
As to `CC=CC(=O)N(CC)c1ccccc1C`, the IC50 result is “Not Active” and the Ki entry is on record as “Not Active”.
As to `O=C1NC(=O)C(c2ccccc2)(c2ccccc2)N1` [PHENYTOIN], the IC50 result is reported as “Not Active” and the Ki entry was “Not Active”.

The next data set has as its target T3, Muscarinic acetylcholine receptor M2 (Homo sapiens, UniProt P08172). Note: in other assays of this panel Not Active means under 50% inhibition at 10 µM.
T3 sequence (P08172 whole entry): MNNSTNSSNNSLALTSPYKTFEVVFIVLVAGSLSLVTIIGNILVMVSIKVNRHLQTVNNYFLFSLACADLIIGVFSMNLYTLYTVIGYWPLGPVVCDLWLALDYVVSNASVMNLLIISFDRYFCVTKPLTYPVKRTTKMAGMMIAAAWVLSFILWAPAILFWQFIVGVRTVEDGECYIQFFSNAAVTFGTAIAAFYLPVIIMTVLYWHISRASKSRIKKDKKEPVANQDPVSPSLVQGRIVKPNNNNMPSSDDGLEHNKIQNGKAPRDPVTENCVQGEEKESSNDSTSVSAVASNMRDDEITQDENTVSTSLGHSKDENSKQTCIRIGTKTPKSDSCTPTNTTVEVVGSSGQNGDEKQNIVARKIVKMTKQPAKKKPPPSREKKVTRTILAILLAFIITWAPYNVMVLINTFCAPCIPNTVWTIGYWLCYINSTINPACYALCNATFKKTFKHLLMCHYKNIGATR
The format is cell membranes, CHO-K1, Membrane. The conditions noted are these: cho-k1.
Turning to `CCC1(c2ccccc2)C(=O)NCNC1=O` [PRIMIDONE], the IC50 result is reported as “Not Active”.
Take `CC=CC(=O)N(CC)c1ccccc1C`: the IC50 entry is reported as “Not Active”.
As to `O=C1NC(=O)C(c2ccccc2)(c2ccccc2)N1` [PHENYTOIN], the IC50 result was “Not Active”.

Tested on in another data set: not listed separately
Nature of the data set: DRUGMATRIX: Atrial Natriuretic Factor (ANF) radioligand binding (ligand: [125I] ANF (rat)). The format is cell membranes, Cavia porcellus, Dunkin-Hartley, Adrenal gland, Membrane. The note with it: Not Active = under 50% inhibition at 10 µM.
As to `CCC1(c2ccccc2)C(=O)NCNC1=O` [PRIMIDONE], the IC50 result was “Not Active” and the Ki result is on record as “Not Active”.
On to `CC=CC(=O)N(CC)c1ccccc1C`, for which the IC50 entry is given as “Not Active” and the Ki result was “Not Active”.
Turning to `O=C1NC(=O)C(c2ccccc2)(c2ccccc2)N1` [PHENYTOIN], the IC50 entry was “Not Active” and the Ki entry is listed as “Not Active”.

The next data set deals with T4, 5-hydroxytryptamine receptor 1A (Rattus norvegicus, UniProt P19327).
T4 sequence (P19327 whole entry): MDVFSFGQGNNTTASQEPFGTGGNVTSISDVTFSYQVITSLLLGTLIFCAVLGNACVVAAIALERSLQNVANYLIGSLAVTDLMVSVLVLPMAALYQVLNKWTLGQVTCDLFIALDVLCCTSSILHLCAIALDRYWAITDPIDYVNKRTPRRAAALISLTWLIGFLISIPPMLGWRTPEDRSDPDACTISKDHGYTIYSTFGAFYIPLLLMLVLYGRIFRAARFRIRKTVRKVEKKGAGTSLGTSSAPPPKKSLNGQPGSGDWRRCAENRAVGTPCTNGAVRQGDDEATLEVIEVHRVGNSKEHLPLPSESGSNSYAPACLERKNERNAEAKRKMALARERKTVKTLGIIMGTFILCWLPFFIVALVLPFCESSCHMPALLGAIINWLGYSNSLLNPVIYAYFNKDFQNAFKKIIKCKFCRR
The format is cell membranes, CHO-K1, Membrane. The conditions noted are these: cho-k1.
With `CCC1(c2ccccc2)C(=O)NCNC1=O` [PRIMIDONE], the IC50 result is “Not Active”.
Consider `CC=CC(=O)N(CC)c1ccccc1C`, for which the IC50 result is recorded as “Not Active”.
In the case of `O=C1NC(=O)C(c2ccccc2)(c2ccccc2)N1` [PHENYTOIN], the IC50 result was “Not Active”.
